Reference: patent US9562031B1, “Phenethyldihydrobenzodioxolones and methods of use” (Sequoia Sciences, Inc., priority 2015, dated 2017)
Like-named read-outs stand apart in the source and are kept apart here.

What was measured:
[1] = tested on: NCI-H460 (large cell lung carcinoma) cells; experiment: antiproliferation assay (72 h, CELLTITER 96), NCI-H460; format: cell-based, human; details: Homo sapiens, read-out: NCI-H460 IC50
Description: (§1) All of the compounds shown in Table 3-Table 8 below were prepared synthetically as described in EXAMPLE I. The compounds were tested for their ability to inhibit the proliferation of human cancer cells in vitro as described in the following paragraph. Table 3-Table 8 list the IC50 values in the M14 and NCI-H460 human cancer cell lines. IC50 is defined as the concentration of compound necessary to achieve 50% of the maximum growth inhibition.
(§2) For the antiproliferation assay, NCI-H460 (large cell lung carcinoma) or M14 (amelanotic melanoma) cells were grown in RPMI-1640 with 10% FBS supplemented with L-glutamine and HEPES. Cells were seeded into 96-well plates at 5×10^2 to 5×10^4 cells/well and allowed to adhere overnight; the medium was then removed. A stock solution of test compound in DMSO was diluted in medium to generate a series of working solutions. Aliquots (100 μl) of the working solutions were then added to the appropriate test wells to expose cells to the final concentrations of compound in a total volume of 100 μl. Seven different concentrations were tested, with 2-5 wells per concentration. Camptothecin was used as a positive control; wells containing vehicle without compound were used as negative controls. Plates were kept for 72 h in a 37° C., 5% CO2 incubator. After incubation, viable cells were detected with the CELLTITER 96 AQueous Non-Radioactive Cell Proliferation Assay (Promega), and IC50 values were determined using GraphPad Prism 5 software.

[2] = tested on: M14 (amelanotic melanoma) cells; experiment: antiproliferation assay (72 h, CELLTITER 96), M14; format: cell-based, human; details: Homo sapiens
Description: as §1, §2

SMILES	IC50 ([1]; NCI-H460, Table 3) [nM]	IC50 ([2]; Table 3) [nM]	IC50 ([1]; NCI-H460, Table 4) [nM]	IC50 ([2]; Table 4) [nM]	further results
C=CC[C@H]1C[C@]2([C@@H](C)Cc3cc(C(=O)OC)c(OC)cc3F)OCOC2=CC1=O [Compound 10, methyl 5-((S)-2-((3aR,5S)-5-allyl-6-oxo-3a,4,5,6-tetrahydrobenzo[d][1,3]dioxol-3a-yl)propyl)-4-fluoro-2-methoxybenzoate]	2200	> 20000			
C=CC[C@H]1C[C@]2(C(C)Cc3cc(C(N)=O)c(OC)cc3F)OCOC2=CC1=O (stereo partly drawn) [Compound 11, 5-(2-((3aR,5S)-5-allyl-6-oxo-3a,4,5,6-tetrahydrobenzo[d][1,3]dioxol-3a-yl)propyl)-4-fluoro-2-methoxybenzamide]	330	4			
C=CC[C@H]1C[C@]2([C@@H](C)Cc3cc(C(=O)NC)c(OC)cc3F)OCOC2=CC1=O [Compound 12, 5-((S)-2-((3aR,5S)-5-allyl-6-oxo-3a,4,5,6-tetrahydrobenzo[d][1,3]dioxol-3a-yl)propyl)-4-fluoro-2-methoxy-N-methylbenzamide]	520	240			
C=CC[C@H]1C[C@]2([C@H](C)Cc3cc(C(=O)NC)c(OC)cc3F)OCOC2=CC1=O [Compound 13, 5-((R)-2-((3aR,5S)-5-allyl-6-oxo-3a,4,5,6-tetrahydrobenzo[d][1,3]dioxol-3a-yl)propyl)-4-fluoro-2-methoxy-N-methylbenzamide]	370	190			
C=CC[C@H]1C[C@]2([C@@H](C)Cc3cc(C#N)c(OC)cc3F)OCOC2=CC1=O [Compound 14, 5-((S)-2-((3aR,5S)-5-allyl-6-oxo-3a,4,5,6-tetrahydrobenzo[d][1,3]dioxol-3a-yl)propyl)-4-fluoro-2-methoxybenzonitrile]	150	37			
C=CC[C@H]1C[C@]2([C@@H](C)Cc3cc(OC)c(OC)cc3F)OCOC2=CC1=O [Compound 15, (6S,7aR)-6-allyl-7a-((S)-1-(2-fluoro-4,5-dimethoxyphenyl)propan-2-yl)-7,7a-dihydrobenzo[d][1,3]dioxol-5(6H)-one]	120	14			
C=CCOc1cc(C[C@@H](C)[C@]23C[C@H](CC=C)C(=O)C=C2OCO3)c(F)cc1OC [Compound 16, (6S,7aR)-6-allyl-7a-((R)-1-(5-(allyloxy)-2-fluoro-4-methoxyphenyl)propan-2-yl)-7,7a-dihydrobenzo[d][1,3]dioxol-5(6H)-one]	620	520			
C=CC[C@H]1C[C@]2([C@@H](C)Cc3cc(N)c(OC)cc3F)OCOC2=CC1=O [Compound 17, (6S,7aR)-6-allyl-7a-((S)-1-(5-amino-2-fluoro-4-methoxyphenyl)propan-2-yl)-7,7a-dihydrobenzo[d][1,3]dioxol-5(6H)-one]	160	29			
C=CC[C@H]1C[C@]2([C@@H](C)Cc3cc(NC(C)=O)c(OC)cc3F)OCOC2=CC1=O [Compound 18, N-(5-((S)-2-((3aR,5S)-5-allyl-6-oxo-3a,4,5,6-tetrahydrobenzo[d][1,3]dioxol-3a-yl)propyl)-4-fluoro-2-methoxyphenyl)acetamide]	410	160			
C=CC[C@H]1C[C@]2([C@H](C)Cc3ccc(OC)c(OC)c3F)OCOC2=CC1=O [Compound 21, (6S,7aR)-6-allyl-7a-((R)-1-(2-fluoro-3,4-dimethoxyphenyl)propan-2-yl)-7,7a-dihydrobenzo[d][1,3]dioxol-5(6H)-one]	3000	2800			
C=CC[C@H]1C[C@]2([C@H](C)Cc3ccc(OC)c(F)c3F)OCOC2=CC1=O [Compound 22, (6S,7aR)-6-allyl-7a-((R)-1-(2,3-difluoro-4-methoxyphenyl)propan-2-yl)-7,7a-dihydrobenzo[d][1,3]dioxol-5(6H)-one]	2400	900			
C=CC[C@H]1C[C@]2([C@H](C)Cc3c(F)cc(OC)cc3F)OCOC2=CC1=O [Compound 23, (6S,7aR)-6-allyl-7a-((R)-1-(2,6-difluoro-4-methoxyphenyl)propan-2-yl)-7,7a-dihydrobenzo[d][1,3]dioxol-5(6H)-one]	720	270			
C=CC[C@H]1C[C@]2([C@H](C)Cc3ccc(OC)c(OC)c3)OCOC2=CC1=O [Compound 24, (6S,7aR)-6-allyl-7a-((R)-1-(3,4-dimethoxyphenyl)propan-2-yl)-7,7a-dihydrobenzo[d][1,3]dioxol-5(6H)-one]			320	110	
C=CC[C@H]1C[C@]2([C@@H](C)Cc3ccc(OC)cc3)OCOC2=CC1=O [Compound 25, (6S,7aR)-6-allyl-7a-((S)-1-(4-methoxyphenyl)propan-2-yl)-7,7a-dihydrobenzo[d][1,3]dioxol-5(6H)-one]			88	61	
C=CC[C@H]1C[C@]2([C@@H](C)Cc3ccc(OC)c(C)c3)OCOC2=CC1=O [Compound 27, (6S,7aR)-6-allyl-7a-((S)-1-(4-methoxy-3-methylphenyl)propan-2-yl)-7,7a-dihydrobenzo[d][1,3]dioxol-5(6H)-one]			630	410	
C=CC[C@H]1C[C@]2([C@H](C)Cc3ccc(OC)c(CO)c3)OCOC2=CC1=O [Compound 28, (6S,7aR)-6-allyl-7a-((R)-1-(3-(hydroxymethyl)-4-methoxyphenyl)propan-2-yl)-7,7a-dihydrobenzo[d][1,3]dioxol-5(6H)-one]			4200	10000	
C=CC[C@H]1C[C@]2(C(C)Cc3ccc(OCC)cc3)OCOC2=CC1=O (stereo partly drawn) [Compound 40, (6S,7aR)-6-allyl-7a-(1-(4-ethoxyphenyl)propan-2-yl)-7,7a-dihydrobenzo[d][1,3]dioxol-5(6H)-one]					IC50 ([1]; NCI-H460, Table 5): 2000 nM; IC50 ([2]; Table 5): 650 nM
C=CC[C@H]1C[C@]2([C@@H](C)Cc3ccc(OC(F)(F)F)cc3)OCOC2=CC1=O [Compound 41, (6S,7aR)-6-allyl-7a-((S)-1-(4-(trifluoromethoxy)phenyl)propan-2-yl)-7,7a-dihydrobenzo[d][1,3]dioxol-5(6H)-one]					IC50 ([1]; NCI-H460, Table 5): 3800 nM; IC50 ([2]; Table 5): > 20000 nM
C=CC[C@H]1C[C@]2([C@@H](C)Cc3ccc(N)c(F)c3)OCOC2=CC1=O [Compound 42, (6S,7aR)-6-allyl-7a-((S)-1-(4-amino-3-fluorophenyl)propan-2-yl)-7,7a-dihydrobenzo[d][1,3]dioxol-5(6H)-one]					IC50 ([1]; NCI-H460, Table 5): 2500 nM; IC50 ([2]; Table 5): 810 nM
C=CC[C@H]1C[C@]2([C@H](C)Cc3ccc(NC)c(F)c3)OCOC2=CC1=O [Compound 43, (6S,7aR)-6-allyl-7a-((R)-1-(3-fluoro-4-(methylamino)phenyl)propan-2-yl)-7,7a-dihydrobenzo[d][1,3]dioxol-5(6H)-one]					IC50 ([1]; NCI-H460, Table 5): 300 nM; IC50 ([2]; Table 5): 64 nM

Further lines, with some results ahead:

IC50 ([1]; NCI-H460, Table 3) [nM]	IC50 ([2]; Table 3) [nM]	IC50 ([1]; NCI-H460, Table 4) [nM]	IC50 ([2]; Table 4) [nM]	SMILES	further results
		1100	1400	C=CC[C@H]1C[C@]2([C@@H](C)Cc3ccc(OC)c(C(=O)NC)c3)OCOC2=CC1=O [Compound 30, 5-((S)-2-((3aR,5S)-5-allyl-6-oxo-3a,4,5,6-tetrahydrobenzo[d][1,3]dioxol-3a-yl)propyl)-2-methoxy-N-methylbenzamide]	
		340	180	C=CC[C@H]1C[C@]2([C@@H](C)Cc3ccc(OC)c(C#N)c3)OCOC2=CC1=O [Compound 31, 5-((S)-2-((3aR,5S)-5-allyl-6-oxo-3a,4,5,6-tetrahydrobenzo[d][1,3]dioxol-3a-yl)propyl)-2-methoxybenzonitrile]	
		110	16	C=CC[C@H]1C[C@]2(C(C)Cc3ccc(OC)c(OC(C)=O)c3)OCOC2=CC1=O (stereo partly drawn) [Compound 33, 5-(2-((3aR,5S)-5-allyl-6-oxo-3a,4,5,6-tetrahydrobenzo[d][1,3]dioxol-3a-yl)propyl)-2-methoxyphenyl acetate]	
		180	49	C=CC[C@H]1C[C@]2(C(C)Cc3ccc(OC)c(N)c3)OCOC2=CC1=O (stereo partly drawn) [Compound 34, (6S,7aR)-6-allyl-7a-(1-(3-amino-4-methoxyphenyl)propan-2-yl)-7,7a-dihydrobenzo[d][1,3]dioxol-5(6H)-one]	
		310	85	C=CC[C@H]1C[C@]2([C@@H](C)Cc3ccc(OC)c(NC(C)=O)c3)OCOC2=CC1=O [Compound 35, N-(5-((S)-2-((3aR,5S)-5-allyl-6-oxo-3a,4,5,6-tetrahydrobenzo[d][1,3]dioxol-3a-yl)propyl)-2-methoxyphenyl)acetamide]	
		1900	720	C=CCNc1cc(CC(C)[C@]23C[C@H](CC=C)C(=O)C=C2OCO3)ccc1OC (stereo partly drawn) [Compound 36, (6S,7aR)-6-allyl-7a-(1-(3-(allylamino)-4-methoxyphenyl)propan-2-yl)-7,7a-dihydrobenzo[d][1,3]dioxol-5(6H)-one]	
		640	240	C=CC[C@H]1C[C@]2([C@@H](C)Cc3ccc(OC)c(Cl)c3)OCOC2=CC1=O [Compound 38, (6S,7aR)-6-allyl-7a-((S)-1-(3-chloro-4-methoxyphenyl)propan-2-yl)-7,7a-dihydrobenzo[d][1,3]dioxol-5(6H)-one]	
		420	130	C=CC[C@H]1C[C@]2([C@H](C)Cc3ccc(OC)c(Cl)c3)OCOC2=CC1=O [Compound 39, (6S,7aR)-6-allyl-7a-((R)-1-(3-chloro-4-methoxyphenyl)propan-2-yl)-7,7a-dihydrobenzo[d][1,3]dioxol-5(6H)-one]	
